In US20200030368A1, “A POLYMER NETWORK, METHOD FOR PRODUCTION, AND USES THEREOF” (priority 2016, published 2020):

How the values were obtained:
[1] = system: A. baumannii; assay: Resistance study by serial passaging at sub-MIC; format: cell-based; details: 14 passages at sub-MIC (MIC/2)
Experimental: (§1) Two control antibiotics norfloxacin and colistin were chosen for S. aureus and for A. baumannii, respectively. In case of norfloxacin and colistin also, the initial MIC values were determined against respective bacteria. After the initial MIC experiment, serial passaging was initiated by transferring bacterial suspension grown at the sub-MIC of the polymer/antibiotics and was subjected to another MIC assay. […] The process was repeated for 14 passages for both S. aureus and A. baumannii respectively. The fold increase in MIC for test polymer to the control antibiotics was plotted against the number of passages to determine the propensity of bacterial resistance development.

[2] = system: S. aureus; assay: Resistance study by serial passaging at sub-MIC; format: cell-based; details: 14 passages at sub-MIC (MIC/2)
Experimental: as §1

Molecule | change in MIC on serial passaging [1] | change in MIC on serial passaging [2]
colistin | gradual increase in MIC | –
CCn1cc(C(=O)O)c(=O)c2cc(F)c(N3CCNCC3)cc21 [norfloxacin] | – | gradual increase in MIC
